This passage reports inhibition results from publication doi:10.1101/2023.01.08.523168v1 (biorxiv, 2023).

One may read the inhibition as how much of the control response was suppressed.

For this assay, the target named is T1, NanoLuc-ENL (ENL YEATS-NanoLuc luciferase fusion protein) (Homo sapiens, UniProt Q03111).
T1 sequence (Q03111 1-148): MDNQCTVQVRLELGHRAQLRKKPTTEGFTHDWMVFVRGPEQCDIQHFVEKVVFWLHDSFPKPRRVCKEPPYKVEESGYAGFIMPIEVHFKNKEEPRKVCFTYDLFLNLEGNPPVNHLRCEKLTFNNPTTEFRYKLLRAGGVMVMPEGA
As to the kind of experiment: NanoBRET tracer displacement in HEK293T cells. It is filed as cell-based. To be noted: HEK-293T, read-out: % inhibition at 40 μM. (In BRET a luciferase serves as donor, and the signal depends on an acceptor being close.)

Residues, ends and D or L forms follow the SMILES beside them. *: point of attachment. Oxazole(5-CO) = O=C(c1cnco1)*

With `CC(=O)N[C@H](C(=O)N[C@@H](Cc1ccc(O)cc1)C(=O)N[C@@H](CS)C(=O)N[C@@H](Cc1ccc(O)cc1)C(=O)N[C@@H](CCCCNC(=O)c1cnco1)C(N)=O)C(C)C` [tENL-S1o] (Ac-VYCYK(Oxazole(5-CO))-NH2), the inhibition at 40 µM was about 50%.
